This is an account of results in PubChem BioAssay (NCI).

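Five concentrations, 48 hours, 96-well plates. Abbreviation: GI50, concentration required for 50% inhibition of growth. At the TGI there is no net growth.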

Test systems include SF-539 CNS; SW-620 colon; OVCAR-3 ovarian; DMS 273 small cell lung; RXF 393 renal; ACHN renal; UACC-257 melanoma; KM20L2 colon; T-47D breast; NCI/ADR-RES ovarian.
Assay in all cases: inhibition of tumour cell growth, NCI panel, 48 h

Consider `CSc1n[n+]2c(s1)SCCC2`, for which the TGI in the experiment with SF-539 CNS, in the experiment with SW-620 colon, in the experiment with OVCAR-3 ovarian, in the experiment on DMS 273 small cell lung, with RXF 393 renal and in the experiment on ACHN renal was greater than 100 µM in each case. This molecule yielded a TGI in the experiment with UACC-257 melanoma greater than 100 µM.
`FC(F)(F)C1(Br)C(c2ccccc2)=C1c1ccccc1`: the TGI in the experiment with SF-539 CNS stood at 37 µM; in the experiment on SW-620 colon it was 33.5 µM; in the experiment on OVCAR-3 ovarian it was 29.6 µM; in the experiment with DMS 273 small cell lung, 36.3 µM; in the experiment on RXF 393 renal it was 31.7 µM; in the experiment on KM20L2 colon it was 36.3 µM. Also, the TGI was determined as 40.3 µM in the experiment on ACHN renal and 43 µM with UACC-257 melanoma.
Consider `CCOC(=N)/C(=C1\OC(N)=C(c2ccc(Cl)cc2)C1=O)c1ccc(Cl)cc1`, for which the TGI in the experiment on SF-539 CNS worked out at 30.2 µM; in the experiment on SW-620 colon, 32.1 µM; in the experiment on OVCAR-3 ovarian, 32.8 µM; in the experiment with DMS 273 small cell lung, 34.4 µM; in the experiment on RXF 393 renal it was 27.2 µM; in the experiment on KM20L2 colon, 37.1 µM. For the same molecule, the TGI was determined as 51 µM with ACHN renal and 35.1 µM with UACC-257 melanoma.
Consider `COC1=CC(=O)C2C(C1=O)C(c1ccccc1)[C@H]2C` (stereo partly drawn), for which the TGI is greater than 100 µM in the experiment on SF-539 CNS; 36.6 µM with SW-620 colon; greater than 100 µM in the experiment on OVCAR-3 ovarian; greater than 100 µM in the experiment with DMS 273 small cell lung; greater than 100 µM with RXF 393 renal; 68.5 µM with ACHN renal.
With `CC(C)(C)C(=O)OCC1CCC(n2cnc3c(=O)[nH]c(N)nc32)O1` (stereo not drawn), the TGI in the experiment on SF-539 CNS, with SW-620 colon, with OVCAR-3 ovarian, with DMS 273 small cell lung, in the experiment with KM20L2 colon and in the experiment with ACHN renal was greater than 100 µM throughout. The TGI in the experiment on UACC-257 melanoma is greater than 100 µM.
As to `CCc1cccc(CC)c1NC(=O)C1=C(C)NC(C)=C(C(=O)Nc2c(CC)cccc2CC)C1c1ccc([N+](=O)[O-])cc1`, the TGI in the experiment with SF-539 CNS is 39.8 µM; with SW-620 colon, 59.1 µM; in the experiment on OVCAR-3 ovarian it was 96 µM; in the experiment on RXF 393 renal, 77.6 µM; with KM20L2 colon, greater than 100 µM; with ACHN renal it was greater than 100 µM. This molecule returned a TGI in the experiment with UACC-257 melanoma of 53.1 µM.
With `O=C(Nc1cccc(O)c1)C(=O)C(C(=O)c1ccc(Cl)c(Cl)c1)C1OC(=O)c2ccccc21` (stereo not drawn), the TGI is 29 µM in the experiment on SW-620 colon; 39.5 µM with DMS 273 small cell lung; 37.2 µM in the experiment with RXF 393 renal; 37.3 µM in the experiment on KM20L2 colon; 29.7 µM with ACHN renal; 55.6 µM in the experiment with UACC-257 melanoma.
Regarding `CN(C)c1nc(=Nc2cccc(Cl)c2)ss1`, the TGI in the experiment on SF-539 CNS came to 32.8 µM; in the experiment with SW-620 colon, 18.8 µM; in the experiment on DMS 273 small cell lung, 29.9 µM; in the experiment on RXF 393 renal, 31.7 µM; in the experiment on KM20L2 colon it was 35.5 µM; in the experiment on ACHN renal, 37.2 µM. Besides, the TGI in the experiment with UACC-257 melanoma was determined as 36 µM.
In the case of `CC(=O)OC1CC2C(C)(C)C(=O)C=C[C@]2(C)C2CCC3(C)C(=CC(=O)C3c3ccoc3)[C@]12C` (stereo partly drawn), the TGI in the experiment with SF-539 CNS came to 31.2 µM; with SW-620 colon, 26 µM; in the experiment with OVCAR-3 ovarian, 25.8 µM; in the experiment with RXF 393 renal it was 10.1 µM; in the experiment with KM20L2 colon, 28.2 µM; with ACHN renal it was 40.1 µM. Also, the TGI with UACC-257 melanoma is 48.2 µM.
As for `CN(C)C=C1C(Cl)=C(C=O)CC(C=O)=C1Cl`, the TGI was determined as 27.9 µM with SF-539 CNS; 7.3 µM in the experiment with SW-620 colon; 27.7 µM in the experiment on OVCAR-3 ovarian; 29 µM in the experiment on DMS 273 small cell lung; 41 µM with KM20L2 colon; 26.4 µM in the experiment with ACHN renal. Moreover, the TGI in the experiment with UACC-257 melanoma was 30.8 µM.
For `CC1=NN(C(=O)c2ccc([N+](=O)[O-])cc2)C(=O)C1N=Nc1ccccc1C(=O)O` (stereo not drawn), the TGI in the experiment with SF-539 CNS, in the experiment with SW-620 colon, in the experiment on OVCAR-3 ovarian, in the experiment with DMS 273 small cell lung, in the experiment with RXF 393 renal and in the experiment on ACHN renal was greater than 100 µM throughout. Besides, in the experiment on UACC-257 melanoma, the TGI is greater than 100 µM.
Consider `CC(=O)[CH-]C(=O)c1ccccc1.CC(=O)[CH-]C(=O)c1ccccc1.CCOCC[O-].CCOCC[O-].[Ti+4]`, for which the GI50 was 19.1 µM in the experiment on SF-539 CNS; 28.3 µM in the experiment on SW-620 colon; 21.6 µM in the experiment with OVCAR-3 ovarian; 19.6 µM in the experiment with KM20L2 colon; 31.6 µM in the experiment with ACHN renal; 33.8 µM with UACC-257 melanoma. The TGI in the experiment on SF-539 CNS is 50.4 µM; with SW-620 colon, greater than 100 µM; in the experiment on OVCAR-3 ovarian, greater than 100 µM; with KM20L2 colon, greater than 100 µM; in the experiment on ACHN renal it was greater than 100 µM; in the experiment on UACC-257 melanoma it was greater than 100 µM.
As for `CC(C)(C)C1CCC2c3c([nH]c4ccccc34)C3C(=O)N(c4ccccc4)C(=O)C3C2C1` (stereo not drawn), the TGI with SF-539 CNS was 23.5 µM; with SW-620 colon it was 41 µM; with OVCAR-3 ovarian it was 19.1 µM; in the experiment on DMS 273 small cell lung, 15 µM; with RXF 393 renal, 14.4 µM; with ACHN renal, 26.2 µM.
Turning to `C=C[C@@]1(O)CCCC2=C(C(=O)OCC)CC[C@]21C`, the TGI in the experiment with SF-539 CNS, in the experiment on SW-620 colon, in the experiment with OVCAR-3 ovarian, with DMS 273 small cell lung, with RXF 393 renal and in the experiment on ACHN renal was greater than 100 µM in each case. The TGI in the experiment with UACC-257 melanoma was greater than 100 µM.
As to `O=C(OCc1ncc(-c2ccc(C(F)(F)F)cc2)c(NC2CCCCCC2)n1)c1c(F)c(F)c(F)c(F)c1F`, the GI50 with SF-539 CNS is 16.3 µM; in the experiment with SW-620 colon, 7.21 µM; in the experiment on OVCAR-3 ovarian, 4.09 µM; with T-47D breast it was 1.97 µM; with RXF 393 renal, 5.34 µM; in the experiment on ACHN renal, 14.2 µM. The values for the GI50 in the experiment on UACC-257 melanoma and in the experiment with NCI/ADR-RES ovarian were 17.5 µM and 21.2 µM, respectively. Besides, the TGI in the experiment on SF-539 CNS stood at 30.7 µM; in the experiment on SW-620 colon, 26.6 µM; with OVCAR-3 ovarian, 13.8 µM; with T-47D breast, 3.99 µM; in the experiment on RXF 393 renal, 21.3 µM; in the experiment on ACHN renal, 29.2 µM. Moreover, the TGI came to 35 µM in the experiment on UACC-257 melanoma and 55.5 µM in the experiment on NCI/ADR-RES ovarian.
Turning to `OCC(O)c1nc2ccc3[nH]ncc3c2c2c1CCCC2` (stereo not drawn), the GI50 is 0.957 µM in the experiment with SF-539 CNS; 1.3 µM in the experiment with SW-620 colon; 1.67 µM in the experiment with OVCAR-3 ovarian; 1.6 µM in the experiment with T-47D breast; 0.612 µM with RXF 393 renal; 1.13 µM with ACHN renal. Besides, the GI50 in the experiment on UACC-257 melanoma is 1.8 µM; in the experiment on NCI/ADR-RES ovarian, 1.34 µM. Also, the TGI in the experiment on SF-539 CNS is 2.4 µM; in the experiment with SW-620 colon it was greater than 50 µM; in the experiment with OVCAR-3 ovarian, greater than 50 µM; in the experiment with T-47D breast it was greater than 50 µM; in the experiment on RXF 393 renal, 1.45 µM; in the experiment with ACHN renal, greater than 50 µM. Further, the TGI with UACC-257 melanoma was greater than 50 µM; with NCI/ADR-RES ovarian it was 4.51 µM.
With `O=C(O)C(Cl)(c1ccccc1)c1ccccc1`, the TGI in the experiment on SF-539 CNS, in the experiment with SW-620 colon, with OVCAR-3 ovarian, with T-47D breast, in the experiment with RXF 393 renal and in the experiment with ACHN renal was greater than 100 µM in each case. For the same molecule, the TGI with UACC-257 melanoma and in the experiment with NCI/ADR-RES ovarian was greater than 100 µM in each case.
Turning to `CC(C)(C)[Si](C)(C)OC1[C@@H](O[Si](C)(C)C(C)(C)C)[C@@H](CNC(=O)NC(=O)CCl)O[C@H]1n1cnc2c(NC(=O)Nc3ccccc3)ncnc21` (stereo partly drawn), the GI50 in the experiment with SF-539 CNS was 0.837 µM; in the experiment with SW-620 colon it was 0.441 µM; with OVCAR-3 ovarian it was 0.446 µM; with T-47D breast it was 1.01 µM; in the experiment on RXF 393 renal, 0.614 µM; in the experiment with ACHN renal, 0.782 µM. Moreover, the GI50 in the experiment on UACC-257 melanoma was 0.884 µM; in the experiment on NCI/ADR-RES ovarian, 1.24 µM. Further, the TGI in the experiment with SF-539 CNS came to 1.58 µM; with SW-620 colon, 1.36 µM; with OVCAR-3 ovarian, 1.49 µM; in the experiment with T-47D breast it was 2.17 µM; with RXF 393 renal, 1.27 µM; with ACHN renal it was 1.54 µM. Besides, the TGI in the experiment with UACC-257 melanoma is 1.89 µM; in the experiment with NCI/ADR-RES ovarian, 8.03 µM.
`N#CC1=C(N)NC(N2CCOCC2)=NC12Nc1ccccc1N2`: the GI50 in the experiment on SF-539 CNS was 36.3 µM; with SW-620 colon, 26.7 µM; in the experiment on OVCAR-3 ovarian, 20.2 µM; with T-47D breast it was 59.1 µM; with RXF 393 renal, 14.2 µM; in the experiment with ACHN renal, 33.3 µM. Besides, the GI50 is 22.9 µM in the experiment on UACC-257 melanoma and 28.3 µM with NCI/ADR-RES ovarian. Further, the TGI was greater than 100 µM with SF-539 CNS; greater than 100 µM in the experiment with SW-620 colon; 70.7 µM in the experiment with OVCAR-3 ovarian; greater than 100 µM in the experiment with T-47D breast; 40.7 µM in the experiment with RXF 393 renal; greater than 100 µM in the experiment with ACHN renal. For the same molecule, the TGI in the experiment with UACC-257 melanoma was 49.1 µM; in the experiment on NCI/ADR-RES ovarian, 87 µM.
On to `CCC(CNc1cc(OC)cc2cccnc12)NC1CCCCC1` (stereo not drawn), for which the GI50 is 56.8 µM in the experiment on SF-539 CNS; 19.4 µM with SW-620 colon; 17.3 µM with OVCAR-3 ovarian; 17.2 µM with T-47D breast; 71.2 µM with RXF 393 renal; 49.7 µM in the experiment on ACHN renal. The GI50 with UACC-257 melanoma is 41.1 µM; with NCI/ADR-RES ovarian, 35.3 µM. The TGI with SF-539 CNS was greater than 100 µM; in the experiment with SW-620 colon, 56.7 µM; with OVCAR-3 ovarian, 65.5 µM; with T-47D breast, 64.3 µM; with RXF 393 renal, greater than 100 µM; with ACHN renal, greater than 100 µM. Further, the TGI in the experiment with UACC-257 melanoma and with NCI/ADR-RES ovarian was greater than 100 µM in each case.
Take `CCCCCCCCCCCCCCCCCC(=O)OCC(COC(=O)CCCN)OC(=O)CCCN` (stereo not drawn): the TGI was 32.2 µM with SF-539 CNS; 38.2 µM in the experiment on SW-620 colon; 35.3 µM in the experiment on OVCAR-3 ovarian; 40 µM with T-47D breast; 32.5 µM with RXF 393 renal; greater than 100 µM in the experiment with ACHN renal. Further, the TGI in the experiment on UACC-257 melanoma was determined as 34.4 µM; in the experiment on NCI/ADR-RES ovarian it was 37 µM.
